# Reference: patent US10899754B2, “Modulators of indoleamine 2,3-dioxygenase” (GLAXOSMITHKLINE INTELLECTUAL PROPERTY DEVELOPMENT LIMITED, priority 2016, dated 2021)
# Like-named read-outs stand apart in the source and are kept apart here.
# Assays:
# [1] = system: human peripheral blood mononuclear cells (PBMC); test: PBMC cytotoxicity assay (CellTiter-Glo); format: cell-based; details: 2 days, pCC50
# How it was run: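 % cytotoxicity was taken from CellTiter-Glo luminescence, using wells without cells and stimulated DMSO wells as references, and fitted by four-parameter curve to give XC50. Cells were human PBMC at 50,000 per well, activated with 100 ng/ml IFN-γ plus 50 ng/ml LPS. Incubation with 11-point, 3-fold dilution series ran for 2 days at 37 °C.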
# [2] = Toxicokinetics in Beagle dogs, 7 day repeat oral administration; format: in vivo; details: 20 mg/kg PO BID; for Therapeutic Index AUC (0-12 hr): versus predicted human efficacious AUC 0.376 μg * hr/mL; for Therapeutic Index Cmax: versus predicted human efficacious Cmax 0.078 μg/mL; for Cmax / AUC(0-t): Beagle, dog, po, 20 mg/kg; for Cmax / AUC(0-t) / Tmax: plasma; for AUC(0-t): Subject 1, read-out: AUC (0-12 hr)
# Description: (§1) To understand its toxicokinetics and potential effect on hepatic functions, EXAMPLE 23 was orally dosed to Beagle dogs for 7 consecutive days.
# [3] = Tolerability, body weight and hepatic functions in Beagle dogs, 7 day repeat oral administration; format: in vivo; details: Beagle dog, 20 mg/kg PO BID for 7 days
# Description: FIG. 1 is daily body weights of Beagle dogs during the study of example 23, 20 mg/kg PO BID dose.
# FIG. 2 is daily hepatic enzyme levels of Beagle dogs during the study: ALT (alanine aminotransferase), AST (aspartate aminotransferase), ALP (alkaline phosphatase) and T-Bil (total bilirubin) for example 23, 20 mg/kg PO BID dose.
# as §1
smiles,measurement,setting,value
"CC(C)CN(c1ccc([C@H](C)CC(=O)O)cc1Nc1nc(C(F)(F)F)ns1)C1CCOCC1 [Example 20, (R)-3-(4-(Isobutyl(tetrahydro-2H-pyran-4-yl)amino)-3-((3-(trifluoromethyl)-1,2,4-thiadiazol-5-yl)amino)phenyl)butanoic Acid]",PBMC TOX PXC50,[1],<5
"CC(C)CN(c1ccc([C@H](C)CC(=O)O)cc1Nc1nnc(C2CC2)s1)C1CCOCC1 [Example 23, (R)-3-(3-((5-cyclopropyl-1,3,4-thiadiazol-2-yl)amino)-4-(isobutyl (tetrahydro-2H-pyran-4-yl)amino)phenyl)butanoic Acid]",PBMC TOX PXC50,[1],<5
same,Therapeutic Index AUC (0-12 hr),"[2]; Beagle dog, Day1, Female",4
same,Therapeutic Index Cmax,"[2]; Beagle dog, Day1, Female",13
same,Therapeutic Index AUC (0-12 hr),"[2]; Beagle dog, Day1, Male",14
same,Therapeutic Index Cmax,"[2]; Beagle dog, Day1, Male",31
same,Therapeutic Index AUC (0-12 hr),"[2]; Beagle dog, Day7, Female",10
same,Therapeutic Index Cmax,"[2]; Beagle dog, Day7, Female",50
same,Therapeutic Index AUC (0-12 hr),"[2]; Beagle dog, Day7, Male",40
same,Therapeutic Index Cmax,"[2]; Beagle dog, Day7, Male",81
same,Therapeutic coverage in AUC0-12 for the predicted human efficacious dose,"[2]; Beagle dog, Day 7, average",~25 fold
same,Therapeutic coverage in Cmax for the predicted human efficacious dose,"[2]; Beagle dog, Day 7, average",~66 fold
same,Time quantifiable in plasma post the start of the oral dose,"[2]; Beagle dog, Days 1 and 7",up to 24 hours
same,Increase in systemic exposures (Cmax and AUC0-12 values) on Day 7 in comparison to Day 1,"[2]; Beagle dog, both dogs",~3 fold
same,Cmax,"[2]; female, Day1, Female, Subject 1",1000 ng/mL
same,AUC(0-t),"[2]; female, Day1, Female",1500 ng·h/mL
same,Cmax,"[2]; female, Day7, Female, Subject 1",3900 ng/mL
same,AUC(0-t),"[2]; female, Day7, Female",3800 ng·h/mL
same,Cmax,"[2]; male, Day1, Male, Subject 1",2400 ng/mL
same,AUC(0-t),"[2]; male, Day1, Male",5100 ng·h/mL
same,Cmax,"[2]; male, Day7, Male, Subject 1",6300 ng/mL
same,AUC(0-t),"[2]; male, Day7, Male",14900 ng·h/mL
same,Tmax,"[2]; Beagle dog, Day1, Male, Subject 1",30 min
same,Tmax,"[2]; Beagle dog, Day7, Female, Subject 1",30 min
same,Tmax,"[2]; Beagle dog, post dose on Days 1 and 7",30 min
same,Clinical observations,[3],no clinical observations were made
same,Tolerability throughout the study,[3],well tolerated
same,"Hepatic functions measured by serum ALT, AST, ALP and T-Bil levels",[3]; FIG. 2,in the normal variable ranges
same,Body weights,"[3]; male and female, FIG. 1",constant
